# Patent US10889595B2, “[1,3]thiazin-2-amine compound, application, and pharmaceutical composition” (TETRANOV PHARMACEUTICAL CO., LTD., priority 2016, dated 2021)
# Target: BACE1 (Homo sapiens (Human), UniProt P56817)
# Test: Activity assay: inhibitory activity against the enzyme BACE1
# Format: biochemical
# Conditions: 10 doses, 3-fold serial dilution starting from 10 μmol/L, singlet
# Experimental: The activity assay for the compound of each example was carried out in this experimental example, and the detailed test method was as follows:
# 1. The test compound was formulated as […] solution in dimethylsulfoxide;
# 2. Starting from 10 μmol/L, by 3-fold serial dilution, the inhibitory activity of each compound against the enzyme was tested in singlet state at 10 doses;
# 3. IC50 values of test compounds were finally obtained.
# Chain of BACE1 (P56817 46-501): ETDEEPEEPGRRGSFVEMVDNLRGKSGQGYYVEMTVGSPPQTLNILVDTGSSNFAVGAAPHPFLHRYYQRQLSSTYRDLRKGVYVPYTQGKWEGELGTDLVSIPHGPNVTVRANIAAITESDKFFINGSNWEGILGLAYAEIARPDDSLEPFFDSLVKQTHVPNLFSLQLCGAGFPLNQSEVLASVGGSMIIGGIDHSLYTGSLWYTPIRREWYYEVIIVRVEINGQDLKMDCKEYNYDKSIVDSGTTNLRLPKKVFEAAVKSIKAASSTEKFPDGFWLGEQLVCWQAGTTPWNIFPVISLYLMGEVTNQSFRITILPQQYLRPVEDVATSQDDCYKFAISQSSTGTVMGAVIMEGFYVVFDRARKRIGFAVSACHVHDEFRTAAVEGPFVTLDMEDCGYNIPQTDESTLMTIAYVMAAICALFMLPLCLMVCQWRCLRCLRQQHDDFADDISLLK
row,Compound,IC50 [nM]
1,"C[C@H]1C[C@@]2(F)CSC(N)=N[C@@]2(c2cc(N)ccc2F)CO1 [Example 7, (4aS,6S,8aS)-8a-(5-amino-2-fluorophenyl)-4a-fluoro-6-methyl-4,4a,5,6,8,8a-hexahydropyrano[3,4-d][1,3]thiazin-2-amine]",5870
2,"C[C@H]1C[C@@]2(F)CSC(N)=N[C@@]2(c2cc(NC(=O)c3ccc(Cl)cn3)ccc2F)CO1 [Example 11, N-(3-((4aS,6S,8aS)-2-amino-4a-fluoro-6-methyl-4,4a,5,6,8,8a-hexahydropyrano[3,4-d][1,3]thiazin-8a-yl)-4-fluorophenyl)-5-chloropicolinamide]",172
3,COc1cnc(C(=O)Nc2ccc(F)c([C@]34CO[C@@H](C)C[C@@]3(F)CSC(N)=N4)c2)cn1 [Example 12],150

# Further lines, results first:
row,IC50 [nM],Compound
1,130,"COc1cnc(C(=O)Nc2cccc([C@]34CO[C@@H](C)C[C@@]3(F)CSC(N)=N4)c2)cn1 [Example 14, N-(3-((4aS,6S,8aS)-2-amino-4a-fluoro-6-methyl-4,4a,5,6,8,8a-hexahydropyrano[3,4-d][1,3]thiazin-8a-yl)phenyl)-5-methoxypyrazin-2-carboxamide]"
2,225,"Cc1cnc(C(=O)Nc2cccc([C@]34CO[C@@H](C)C[C@@]3(F)CSC(N)=N4)c2)cn1 [Example 15, N-(3-((4aS,6S,8aS)-2-amino-4a-fluoro-6-methyl-4,4a,5,6,8,8a-hexahydropyrano[3,4-d][1,3]thiazin-8a-yl)phenyl)-5-methylpyrazin-2-carboxamide]"
